Assay results reported in patent US9981928B2, “Aryl sulfide derivatives and aryl sulfoxide derivatives as acaricides and insecticides” (BAYER CROPSCIENCE AKTIENGESELLSCHAFT, priority 2013, dated 2018).
Where two headings read alike, the source gives them in different places.

Tests used:
[1] = tested on: greenhouse red spider mite (Tetranychus urticae); experiment: Tetranychus urticae spray test, OP-resistant (TETRUR), bean leaf disks; assay type: in vivo; settings: bean leaf disks, after 6 days; for pest or weed control at 500 g/ha: Tetranychus urticae, foliar, 144 h, read-out: efficacy in %
Method: Tetranychus urticae—Spray Test, OP-Resistant (TETRUR)
Solvent: 78.0 parts by weight of acetone
• 1.5 parts by weight of dimethylformamide Emulsifier: alkylaryl polyglycol ether
To produce a suitable preparation of active compound, 1 part by weight of active compound is dissolved using the stated parts by weight of solvent and made up with water containing an emulsifier concentration of 1000 ppm until the desired concentration is attained. To produce further test concentrations, the preparation is diluted with emulsifier-containing water.
disks of bean leaves (Phaseolus vulgaris) infested with all stages of the greenhouse red spider mite (Tetranychus urticae) are sprayed with an active compound preparation of the desired concentration.
After 6 days, the efficacy in % is determined. 100% means that all the spider mites have been killed; 0% means that none of the spider mites have been killed.

[2] = log P determination by HPLC on reversed-phase columns (C 18), analogously to OECD Guideline 117; assay type: physicochemical; settings: for chromatographic logP: reversed-phase C18 HPLC column; for logP (HCOOH): LC-MS in the acidic range, pH 2.7, 0.1% aqueous formic acid / acetonitrile; for logP (HCOOH) / logP (neutral): HPLC reversed-phase C 18; for logP (neutral): LC-MS in the neutral range, pH 7.8, 0.001 molar aqueous ammonium hydrogencarbonate / acetonitrile
Method: The log P values were determined analogously to OECD Guideline 117 (EC Directive 92/69/EEC) by HPLC (high-performance liquid chromatography) using reversed-phase columns (C 18), by the following methods:
[a] The LC-MS determination in the acidic range was effected at pH 2.7 with 0.1% aqueous formic acid and acetonitrile (contains 0.1% formic acid) as eluents; linear gradient from 10% acetonitrile to 95% acetonitrile. log P^[a] is also referred to as log P(HCOOH). [b] LC-MS determination in the neutral range was effected at pH 7.8 with 0.001 molar aqueous ammonium hydrogencarbonate solution and acetonitrile as eluents; linear gradient from 10% acetonitrile to 95% acetonitrile. log P^[…] is also referred to as log P(neutral).

[3] = acidic range, pH 2.7, 0.1% aqueous formic acid and acetonitrile, read-out: log P[a] / log P(HCOOH)
[4] = neutral range, pH 7.8, 0.001 molar aqueous ammonium hydrogencarbonate and acetonitrile, read-out: log P[b] / log P(neutral)

Row | chromatographic logP [2, 3] | chromatographic logP [2, 4] | SMILES | pest or weed control at 500 g/ha ([1]; application rate 500 g/ha) [%] | efficacy in % ([1]; application rate 500 g/ha) [%] | logP (HCOOH) [2] | logP (neutral) [2] | efficacy in % ([1]; application rate 100 g/ha) [%]
1 | 2.36 | 2.31 | Cc1cc(F)c(N2CCNC2=O)cc1SCC(F)(F)F [Example 9, 1-{2-Fluoro-4-methyl-5-[(2,2,2-trifluoroethyl)sulfanyl]phenyl}imidazolidin-2-one] | 90 | – | – | – | –
2 | 3.6 | 3.5 | Cc1cc(F)c(N2C(=O)CSC2=NCC(F)(F)F)cc1SCC(F)(F)F [Example 11, 3-{2-Fluoro-4-methyl-5-[(2,2,2-trifluoroethyl)sulfanyl]phenyl}-2-[(2,2,2-trifluoroethyl)imino]-1,3-thiazolidin-4-one] | 90 | – | – | – | –
3 | 2.04 | 2.01 | Cc1cc(F)c(N2C(=O)N(C)C(C)(C)C2=O)cc1[S+]([O-])CC(F)(F)F (stereo not drawn) [Example 17, 3-{2-Fluoro-4-methyl-5-[(2,2,2-trifluoroethyl)sulfinyl]phenyl}-1,5,5-trimethylimidazolidine-2,4-dione] | 100 | – | – | – | –
4 | 2.96 | 2.92 | Cc1cc(F)c(N2C(=O)N(C)C(C)(C)C2=O)cc1SCC(F)(F)F [Example 18, 3-{2-Fluoro-4-methyl-5-[(2,2,2-trifluoroethyl)sulfanyl]phenyl}-1,5,5-trimethylimidazolidine-2,4-dione] | 100 | – | – | – | –
5 | 2.52 | 2.45 | Cc1cc(F)c(N2C(=O)CCC2=O)cc1SCC(F)(F)F [Example 19, 1-{2-Fluoro-4-methyl-5-[(2,2,2-trifluoroethyl)sulfanyl]phenyl}pyrrolidine-2,5-dione] | 100 | – | – | – | –
6 | 1.63 | 1.63 | Cc1ccc(-n2c(=O)n(C)c(=O)n2C)cc1[S+]([O-])CC(F)(F)F (stereo not drawn) [Example 21, 1,4-Dimethyl-2-{4-methyl-3-[(2,2,2-trifluoroethyl)sulfinyl]phenyl}-1,2,4-triazolidine-3,5-dione] | 100 | – | – | – | –
7 | – | – | Cn1c(=O)n(C)n(-c2ccc(Cl)c(SCC(F)(F)F)c2)c1=O [Example 31] | – | 90 | 2.72 | 2.69 | –
8 | – | – | COc1ccc(-n2c(=O)n(C)c(=O)n2C)cc1[S+]([O-])CC(F)(F)F (stereo not drawn) [Example 32] | – | 100 | 1.58 | 1.54 | –
9 | – | – | Cn1c(=O)n(C2CC2)c(=O)n1-c1ccc(Cl)c([S+]([O-])CC(F)(F)F)c1 (stereo not drawn) [Example 39] | – | 100 | 2.20 | 2.17 | –
10 | – | – | Cn1c(=O)n(C2CC2)c(=O)n1-c1ccc(Cl)c(SCC(F)(F)F)c1 [Example 40] | – | 100 | 3.04 | 2.98 | –
11 | – | – | Cn1c(=O)n(C2CC2)c(=O)n1-c1ccc(C#N)c([S+]([O-])CC(F)(F)F)c1 (stereo not drawn) [Example 43] | – | 90 | 1.93 | 1.90 | –
12 | – | – | Cn1c(=O)n(C2CC2)c(=O)n1-c1ccc(Br)c(SCC(F)(F)F)c1 [Example 46] | – | 100 | 3.11 | 3.05 | –
13 | – | – | C=CCn1c(=O)n(C2CC2)c(=O)n1-c1ccc(C)c([S+]([O-])CC(F)(F)F)c1 (stereo not drawn) [Example 49] | – | 90 | 2.28 | 2.24 | –
14 | – | – | Cc1ccc(-n2c(=O)n(C3CC3)c(=O)n2CC(C)C)cc1[S+]([O-])CC(F)(F)F (stereo not drawn) [Example 50] | – | 90 | 3.58 | 3.47 | –
15 | – | – | CCn1c(=O)n(C)c(=O)n1-c1ccc(C)c(SCC(F)(F)F)c1 [Example 51] | – | 90 | 2.82 | 2.83 | –
16 | – | – | Cn1c(=O)n(C2CC2)c(=O)n1-c1ccc(C(F)(F)F)c(SCC(F)(F)F)c1 [Example 53] | – | 100 | 3.33 | 3.23 | –
17 | – | – | Cc1cc(F)c(-n2[nH]c(=O)n(C)c2=O)cc1SCC(F)(F)F [Example 55] | – | 90 | 2.09 | 0.60 | –
18 | – | – | Cc1ccc(-n2c(=O)n(C)c(=O)n2-c2ccc(C)c(SCC(F)(F)F)c2)cc1SCC(F)(F)F [Example 56] | – | 90 | 4.34 | 4.05 | –
19 | – | – | C=CCn1c(=O)n(C)c(=O)n1-c1ccc(C)c(SCC(F)(F)F)c1 [Example 58] | – | 100 | 3.03 | 2.88 | –
20 | – | – | C=CCn1c(=O)n(C)c(=O)n1-c1ccc(C)c([S+]([O-])CC(F)(F)F)c1 (stereo not drawn) [Example 59] | – | 100 | 2.03 | 2.00 | –

Row | chromatographic logP [2, 3] | chromatographic logP [2, 4] | SMILES | pest or weed control at 500 g/ha ([1]; application rate 500 g/ha) [%] | efficacy in % ([1]; application rate 500 g/ha) [%] | logP (HCOOH) [2] | logP (neutral) [2] | efficacy in % ([1]; application rate 100 g/ha) [%]
21 | – | – | Cc1ccc(-n2c(=O)n(C)c(=O)n2C(C)C)cc1SCC(F)(F)F [Example 61] | – | 90 | 3.33 | 3.27 | –
22 | – | – | Cc1cc(F)c(-n2c(=O)n(C)c(=O)n2C(C)C)cc1SCC(F)(F)F [Example 62] | – | 90 | 3.29 | 3.23 | –
23 | – | – | Cc1ccc(-n2c(=O)n(C3CC3)c(=O)n2C(C)C)cc1SCC(F)(F)F [Example 63] | – | 90 | 3.65 | 3.57 | –
24 | – | – | Cc1cc(F)c(-n2c(=O)n(C3CC3)c(=O)n2C(C)C)cc1[S+]([O-])CC(F)(F)F (stereo not drawn) [Example 64] | – | 90 | 2.51 | 2.45 | –
25 | – | – | Cc1cc(F)c(-n2c(=O)n(C3CC3)c(=O)n2C(C)C)cc1SCC(F)(F)F [Example 65] | – | 100 | 3.59 | 3.51 | –
26 | – | – | Cc1cc(F)c(-n2[nH]c(=O)n(C3CC3)c2=O)cc1SCC(F)(F)F [Example 66] | – | 100 | 2.30 | 0.69 | –
27 | – | – | Cn1c(=O)n(C)n(-c2ccc(Br)c([S+]([O-])CC(F)(F)F)c2)c1=O (stereo not drawn) [Example 67] | – | 100 | 2.05 | 2.02 | –
28 | – | – | Cn1c(=O)n(C)n(-c2ccc(Br)c(SCC(F)(F)F)c2)c1=O [Example 68] | – | 100 | 2.83 | 2.78 | –
29 | – | – | Cn1c(=O)n(C2CC2)c(=O)n1-c1cc([S+]([O-])CC(F)(F)F)c(Br)cc1F (stereo not drawn) [Example 72] | – | 90 | 2.24 | 2.18 | –
30 | – | – | Cc1cc(F)c(-n2c(=O)n(-c3cccc(C(F)(F)F)c3)c(=O)n2C)cc1SCC(F)(F)F [Example 76] | – | 100 | 4.09 | 3.94 | –
31 | – | – | C=CCn1c(=O)n(-c2ccc(C)c(SCC(F)(F)F)c2)n(-c2ccc(C)c(SCC(F)(F)F)c2)c1=O [Example 79] | – | – | 4.86 | 4.67 | 90
32 | – | – | Cc1ccc(-n2c(=O)n(C)c(=O)n2-c2ccc(C)c([S+]([O-])CC(F)(F)F)c2)cc1[S+]([O-])CC(F)(F)F (stereo not drawn) [Example 82] | – | 90 | 2.67 | 2.61 | –
33 | – | – | CCn1c(=O)[nH]n(-c2cc(SCC(F)(F)F)c(C)cc2F)c1=O [Example 85] | – | 90 | 2.43 | 0.86 | –
34 | 3.71 | 3.69 | CCn1c(=O)n(-c2ccccc2)c(=O)n1-c1cc(SCC(F)(F)F)c(C)cc1F [Example 87, 1-Ethyl-2-{2-fluoro-4-methyl-5-[(2,2,2-trifluoroethyl)sulfanyl]phenyl}-4-phenyl-1,2,4-triazolidine-3,5-dione] | 90 | – | – | – | –
35 | – | – | CCn1c(=O)n(C)n(-c2ccc(C)c([S+]([O-])CC(F)(F)F)c2)c1=O (stereo not drawn) [Example 89] | – | 100 | 1.96 | 1.91 | –
36 | – | – | Cc1ccc(-n2c(=O)n(C3CC3)c(=O)n2Cc2ccccc2)cc1SCC(F)(F)F [Example 90] | – | 100 | 3.81 | 3.71 | –
37 | – | – | Cc1cc(F)c(-n2c(=O)n(C(C)C)c(=O)n2C)cc1[S+]([O-])CC(F)(F)F (stereo not drawn) [Example 92] | – | 100 | 2.27 | 2.22 | –
38 | – | – | Cc1cc(F)c(-n2c(=O)n(C(C)(C)C)c(=O)n2C)cc1SCC(F)(F)F [Example 94] | – | – | 3.85 | 3.82 | 90
39 | – | – | CCn1c(=O)n(C)c(=O)n1-c1cc(SCC(F)(F)F)c(C)cc1F [Example 97] | – | 100 | 2.91 | 2.83 | –
